Activity calls are given as the source filed them. The rule behind the calls is not given here.
Columns and labels:
[1] = Antitumor activity against human HCC cells xenografted in BALB/c mouse assessed as tumor volume administered iv once daily for 7 days measured on day 7 (reference value: 910 mm3); type: functional; settings: time 7 day
[2] = tested on: A549; assay: Cytotoxicity against cisplatin-resistant human A549 cells assessed as inhibition of cell growth incubated for 48 hrs by MTT assay; type: functional, cell-based; settings: A549, 48 h
[3] = Drug uptake in golgi apparatus of human HepG2 cells at 10 uM incubated for 8 hrs by Golgi-tracker dye based laser confocal microscopy; type: ADME, subcellular, Golgi body; settings: hepg2, 8 h
[4] = tested on: HepG2; assay: Downregulation of Putrescine contents in human HepG2 cells measured after 24 hrs by HPLC analysis; type: functional, cell-based
[5] = tested on: HepG2; assay: Inhibition of tumor metastasis in human HepG2 cells assessed as downregulation of HMGB1 gene expression level measured after 24 hrs by qRT-PCR analysis; type: functional, cell-based; settings: dose 5-15 µM
[6] = Upregulation of PAO expression in human HepG2 cells at 10 uM measured after 24 hrs relative to control; type: functional
[7] = tested on: HepG2; assay: Inhibition of tumor metastasis in human HepG2 cells assessed as upregulation of p53 gene expression level at 5 to 15 uM measured after 24 hrs by qRT-PCR analysis; type: functional, cell-based; settings: dose 5-15 µM
[8] = tested on: Huh-7; assay: Downregulation of Spermine contents in human Huh-7 cells measured after 24 hrs by HPLC analysis; type: functional, cell-based
[9] = tested on: MDA-MB-231; assay: Cytotoxicity against human MDA-MB-231 cells assessed as inhibition of cell growth incubated for 48 hrs by MTT assay; type: functional, cell-based; settings: MDA-MB-231, 48 h
[10] = Toxicity in BALB/c mouse xenografted with human HCC cells assessed as effect on spleen weight index at 1 to 5 mg/kg, iv administered once daily for 7 days; type: organism-based; settings: in vivo, 168 h, dose 1-5 mg/kg, time 7 day
[11] = tested on: HepG2; assay: Inhibition of tumor metastasis in human HepG2 cells assessed as upregulation of SSAT gene expression level at 5 to 15 uM measured after 24 hrs by qRT-PCR analysis; type: functional, cell-based; settings: dose 5-15 µM
[12] = tested on: HepG2; assay: Potency index, ratio of cisplatin IC50 to test compound IC50 for human HepG2 cells by MTT assay; type: functional
[13] = tested on: HepG2; assay: Potency index, ratio of amonafide IC50 to test compound IC50 for human HepG2 cells by MTT assay; type: functional
[14] = Toxicity in BALB/c mouse xenografted with human HCC cells assessed as effect on liver weight index at 1 to 5 mg/kg, iv administered once daily for 7 days; type: organism-based; settings: in vivo, 168 h, dose 1-5 mg/kg, time 7 day
[15] = tested on: A549; assay: Inhibition of tumor metastasis in cisplatin-resistant human A549 cells assessed as upregulation of p62 protein expression level at 5 to 15 uM measured after 24 hrs by western blot analysis; type: functional, cell-based; settings: dose 5-15 µM
[16] = Antitumor activity against human HCC cells xenografted in BALB/c mouse assessed as inhibition of tumor weight at 1 mg/kg, iv administered once daily for 7 days; type: functional; settings: 168 h, time 7 day
[17] = Antitumor activity against human HCC cells xenografted in BALB/c mouse assessed as inhibition of tumor weight at 3 mg/kg, iv administered once daily for 7 days; type: functional; settings: 168 h, time 7 day
[18] = tested on: HepG2; assay: Cytotoxicity against human HepG2 cells assessed as inhibition of cell growth incubated for 48 hrs by MTT assay; type: functional, cell-based; settings: HepG2, 48 h
[19] = tested on: Huh-7; assay: Potency index, ratio of cisplatin IC50 to test compound IC50 for human Huh-7 cells by MTT assay; type: functional
[20] = tested on: HepG2; assay: Induction of apoptosis in human HepG2 cells assessed as induction of DNA damage by measuring upregulation of gammaH2AX expression at 5 to 15 uM; type: functional, cell-based; settings: dose 5-15 µM
[21] = Toxicity in BALB/c mouse xenografted with human HCC cells assessed as effect on lung weight index at 1 to 5 mg/kg, iv administered once daily for 7 days; type: organism-based; settings: in vivo, 168 h, dose 1-5 mg/kg, time 7 day
[22] = Toxicity in BALB/c mouse xenografted with human HCC cells assessed as effect on kidney weight index at 1 to 5 mg/kg, iv administered once daily for 7 days; type: organism-based; settings: in vivo, 168 h, dose 1-5 mg/kg, time 7 day
[23] = tested on: A549; assay: Inhibition of tumor metastasis in cisplatin-resistant human A549 cells assessed as downregulation of HMGB1 protein expression level measured after 24 hrs by western blot analysis; type: functional, cell-based; settings: dose 5-15 µM
[24] = tested on: A549; assay: Inhibition of tumor metastasis in cisplatin-resistant human A549 cells assessed as upregulation of p53 expression level at 5 to 15 uM measured after 24 hrs by western blot analysis; type: functional, cell-based; settings: dose 5-15 µM
[25] = Selectivity index, ratio of IC50 for human HL7702 cells to IC50 for human HepG2 cells; type: toxicity; settings: HL7702 cells and HepG2 cells, read-out: Ratio IC50
[26] = tested on: HepG2; assay: Downregulation of Spermine contents in human HepG2 cells measured after 24 hrs by HPLC analysis; type: functional, cell-based
[27] = tested on: HepG2; assay: Downregulation of Spermidine contents in human HepG2 cells measured after 24 hrs by HPLC analysis; type: functional, cell-based
[28] = tested on: Huh-7; assay: Cytotoxicity against human Huh-7 cells assessed as reduction in cell viability at 5 to 15 uM incubated for 24 hrs in presence of polyamine transporter inhibitor, Spd by MTT assay; type: functional, cell-based; settings: dose 5-15 µM
[29] = tested on: Huh-7; assay: Potency index, ratio of amonafide IC50 to test compound IC50 for human Huh-7 cells by MTT assay; type: functional
[30] = Ratio of amonafide IC50 to test compound IC50 for cisplatin-resistant human A549 cells by MTT assay; type: functional
[31] = Upregulation of PAO expression in human Huh-7 cells at 10 uM measured after 24 hrs relative to control; type: functional
[32] = tested on: Huh-7; assay: Downregulation of Putrescine contents in human Huh-7 cells measured after 24 hrs by HPLC analysis; type: functional, cell-based
[33] = Toxicity in BALB/c mouse xenografted with human HCC cells assessed as body weight at 1 to 5 mg/kg, iv administered once daily for 7 days; type: organism-based; settings: in vivo, 168 h, dose 1-5 mg/kg, time 7 day

In the case of `NCCCCNCCCCNCCCCN1C(=O)c2cccc3cc(NC(=O)CN)cc(c23)C1=O`, the Activity [1] is reported as 400 mm3, the IC50 [2] is reported as 15.5 µM and the Drug uptake [3] is reported as “Not Active”. The inhibition [4] was “Active”, the inhibition [5] was “Dose-Dependent Effect” and the “fold change (FC)” value [6] was 1.5. The inhibition [7] was “Active”, the inhibition [8] was “Active” and the IC50 [9] was 15.4 µM. The Activity [10] was “Non-Toxic”, the inhibition [11] was “Active” and the “Ratio IC50” value [12] was 6.74. For the same compound, the “Ratio IC50” value [13] was 7.1, the Activity [14] was “Non-Toxic” and the inhibition [15] was “Active”. The inhibition in vivo at 1 mg/kg [16] was 58.5%, the inhibition in vivo at 3 mg/kg [17] was 70.1% and the IC50 [18] was 1.32 µM. The “Ratio IC50” value [19] was 15.33, the Activity [20] was “Active” and the Activity [21] was “Non-Toxic”. For the same compound, the Activity [22] was “Non-Toxic”, the inhibition [23] was “Dose-Dependent Effect” and the inhibition [24] was “Active”. For the same compound, the selectivity ratio [25] was 4.77, the inhibition [26] was “Active” and the inhibition [27] was “Active”. For the same compound, the Activity [28] was “inactive”, the “Ratio IC50” value [29] was 8.69 and the “Ratio IC50” value [30] was 0.62. The “fold change (FC)” value [31] was 1.5, the inhibition [32] was “Active” and the Activity [33] was “Non-Toxic”.
